Test results published in US20250250245A1, “TRIMETAZIDINE SALTS” (LES LABORATOIRES SERVIER, priority 2021, published 2025).
Where a name gives a salt, the structure may show the parent alone.

Assay: Trimetazidine nitrosamine formation in aqueous sodium nitrite solution (LC/MS dosage)
Format: physicochemical
Conditions: 6 mg/mL in trimetazidine equivalent (low solubility), 40° C. for 22 hours
Description: In order to model the formation of trimetazidine nitrosamine during the formulation process, an aqueous solution of sodium nitrite was added to the trimetazidine salt. The sodium nitrite mimics the presence of nitrites in water and/or excipients during a drug product manufacturing process.
The trimetazidine salt, in an amount corresponding to 600 mg trimetazidine, was placed in 2 mL volumetric flask. […]
The solution was stirred at 40° C. for 22 hours. The trimetazidine nitrosamine dosage was performed by LC/MS.

Compound `COc1ccc(CN2CCNCC2)c(OC)c1OC.O=C(O)C(=O)O.O=C(O)C(=O)O` [Comparative Example D] has a Trimetazidine nitrosamine content of 83.1 ppm.

Same assay, conditions: 30 mg/mL in trimetazidine equivalent (low solubility), 40° C. for 22 hours

With `COc1ccc(CN2CCNCC2)c(OC)c1OC.O=C(O)C(=O)O` [Comparative Example C] the Trimetazidine nitrosamine content was 104.0 ppm.

Same assay, conditions: 300 mg/mL in trimetazidine equivalent, stirred at 40° C. for 22 hours

Point of comparison: `COc1ccc(CN2CCNCC2)c(OC)c1OC` [Comparative Example A, Trimetazidine dihydrochloride], Trimetazidine nitrosamine content 126.0 ppm. Against it:
- COc1ccc(CN2CCNCC2)c(OC)c1OC.Cl.Cl [Comparative Example E] — lower, 22.0 ppm
- COc1ccc(CN2CCNCC2)c(OC)c1OC.O=C(O)C=CC(=O)O [Comparative Example F] — lower, 121.2 ppm
- COc1ccc(CN2CCNCC2)c(OC)c1OC.COc1ccc(CN2CCNCC2)c(OC)c1OC.O=C(O)CCCCC(=O)O [Example 1, Trimetazidine Hemiadipate] — lower, 0.7 ppm
- trimetazidine hemioxalate [Comparative Example B] — lower, 1.1 ppm
- Trimetazidine Hemifumarate [Example 5] — lower, 0.1 ppm
- Trimetazidine Hemisulfate [Example 4] — lower, 0.6 ppm
- Trimetazidine Hemiphosphate [Example 7] — lower, 0.6 ppm
- Trimetazidine Hemimalate [Example 3] — lower, 0.7 ppm
- Trimetazidine Hemitartrate [Example 6] — lower, 0.6 ppm
- COc1ccc(CN2CCNCC2)c(OC)c1OC.O=C(O)C=CC(=O)O [Comparative Example G] — lower, 31.9 ppm
- Trimetazidine Hemisuccinate [Example 2] — lower, 0.5 ppm

Assay: Solubility of the trimetazidine salts in the aqueous test solution
Format: physicochemical
Conditions: 300 mg/mL in trimetazidine equivalent not used

For `COc1ccc(CN2CCNCC2)c(OC)c1OC.O=C(O)C(=O)O` [Comparative Example C], the Solubility was “low solubilities”.
With `COc1ccc(CN2CCNCC2)c(OC)c1OC.O=C(O)C(=O)O.O=C(O)C(=O)O` [Comparative Example D] the Solubility was “low solubilities”.
